Laboratory results published in ChEMBL document CHEMBL6078614, “Privileged small molecules against neglected tropical diseases: A perspective from structure activity relationships” (Eur J Med Chem, 2024).
≈ marks a conversion by molar mass, not a printed value.

Tests used:
Trypanosoma cruzi [1] = test: Antitrypanosomal activity against Trypanosoma cruzi Tulahuen amastigotes; format: functional, organism-based
Leishmania chagasi = test: Antileishmanial activity against Leishmania chagasi; format: functional, organism-based
Trypanosoma cruzi [2] = test: Antitrypanosomal activity against trypomastigote form of Trypanosoma cruzi Y assessed as inhibition of parasite viability; format: functional, organism-based
Phosphodiesterase 4 = Phosphodiesterase 4 (Homo sapiens, UniProt P27815+Q08499+Q07343+Q08493); test: Inhibition of PDE4 (unknown origin); format: protein assay
Leishmania major [3] = test: Antileishmanial activity against Leishmania major; format: functional, organism-based
Entamoeba histolytica = test: Antiparasitic activity against Entamoeba histolytica; format: functional, organism-based
Leishmania major [4] = test: Antileishmanial activity against Leishmania major amastigotes assessed as inhibition of parasite growth incubated for 48 hrs by alamar blue reagent based ELISA; format: functional, organism-based
Leishmania braziliensis = test: Antileishmanial activity against Leishmania braziliensis; format: functional, organism-based
Trypanosoma brucei = test: Antitrypanosomal activity against Trypanosoma brucei; format: functional, organism-based
Leishmania infantum = test: Inhibition of Leishmania infantum Arginase expressed in Escherichia coli BL21 (DE3) at 50 uM by enzymatic assay relative to control
Trypanosoma cruzi [5] = test: Antiprotozoal activity against Trypanosoma cruzi epimastigotes assessed as reduction in parasite growth; format: functional, organism-based
Leishmania major [6] = test: Antileishmanial activity against Leishmania major promastigotes assessed as inhibition of parasite growth; format: functional, organism-based
Leishmania mexicana [7] = test: Antileishmanial activity against Leishmania mexicana promastigotes assessed as reduction in parasite growth by alamar-blue staining based analysis; format: functional, organism-based
Leishmania donovani [8] = test: Antileishmanial activity against amastigote form of Leishmania donovani infected in BALB/c mouse assessed as inhibition of parasite growth in spleen at 25 mg/kg, po measured after 5 days by geimsa staining based analysis relative to control; format: functional; design: scale not given: the % may be the effect or the level left; conditions: time 5 day
Leishmania donovani [9] = test: Antileishmanial activity against Leishmania donovani amastigotes infected in J774 macrophage assessed as inhibition of parasite growth incubated for 48 hrs by luciferase assay; format: functional, organism-based; conditions: J774, 48 h
Leishmania major [10] = test: Antileishmanial activity against Leishmania major promastigotes assessed as inhibition of parasite growth incubated for 48 hrs by resazurin dye based assay; format: functional, organism-based
Leishmania major [11] = test: Antileishmanial activity against Leishmania major IR-173 promastigotes assessed as inhibition of parasite growth incubated for 48 hrs by resazurin dye based assay; format: functional, organism-based; conditions: IR-173, 48 h
Leishmania major [12] = test: Antileishmanial activity against Leishmania major IR-173 promastigotes assessed as inhibition of parasite growth incubated for 24 hrs by resazurin dye based assay; format: functional, organism-based; conditions: IR-173, 24 h
[13] = Inhibition of Entamoeba histolytica O-acetylserine sulfhydrylase
Leishmania mexicana [14] = test: Antileishmanial activity against Leishmania mexicana promastigotes
L929 = test: Cytotoxicity against mouse L929 cells assessed as reduction in cell viability; format: functional
Trypanosoma cruzi [15] = test: Antitrypanosomal activity against trypomastigote form of Trypanosoma cruzi Y assessed as inhibition of parasite viability incubated for 24 hrs by light microscopy; format: functional, organism-based
HeLa = test: Cytotoxicity against human HeLa cells assessed as reduction in cell viability incubated for 24 hrs by MTT assay; format: functional
Leishmania amazonensis = test: Antileishmanial activity against Leishmania amazonensis amastigotes assessed as parasite growth inhibition; format: functional, organism-based
[16] = tested on: Trypanosoma brucei rhodesiense; test: Antitrypanosomal activity against Trypanosoma brucei rhodesiense; format: functional, organism-based
HepG2 = test: Cytotoxicity against human HepG2 cells assessed as reduction in cell viability by MTT assay; format: functional
Leishmania donovani [17] = test: Antileishmanial activity against Leishmania donovani promastigotes measured after 48 hrs by MTT assay; format: functional, organism-based

## COc1ccc2c(-c3ccnc(Nc4cccc(C#N)c4)n3)c(CO)nn2n1
Trypanosoma cruzi [1]
  EC50: 7.2 µM

## COc1ccc(/C=N/NC(N)=S)cc1
Leishmania chagasi
  IC50: 1.6 µM

## Clc1ccc(-n2cc(C3=NCCS3)cn2)cc1Cl
Trypanosoma cruzi [2]
  IC50: 1.9 µM

## COc1ccc(C2=NN(C(C)C)C(=O)C2(C)C)cc1-c1cccnc1
Phosphodiesterase 4
  pIC50: 6.4

## Cc1ccc(C(=O)NC(=S)NCc2ccco2)cc1
Leishmania major [3]
  IC50: 38.5 µg/mL

## CC(C)Cc1ccc(C(C)C(=O)O)cc1 (centres undefined) [IBUPROFEN]
Entamoeba histolytica
  IC50: 0.172 µM

## Cc1ccn2c(C(=O)N3CCN(CCc4cn(-c5ccc(Br)cc5)nn4)CC3)c(C)nc2c1
Leishmania major [4]
  IC50: 15.1 µM

## CC(C)c1ccc(S(=O)(=O)/N=N/Cc2ccc([N+](=O)[O-])o2)cc1
Leishmania major [4]
  IC50: 4.71 µM

## CN1CCN(c2nn3c(-c4cccc([N+](=O)[O-])c4)nnc3c3ccccc23)CC1
Leishmania braziliensis
  IC50: 9.37 µM

## N=C(N)N/N=C/c1ccccc1-c1ccccc1
Leishmania chagasi
  IC50: 4.97 µM

## NCCCC(N)(C(=O)O)C(F)F (centres undefined) [EFLORNITHINE]
Trypanosoma brucei
  EC50: 13 µM

## O=C(NCCNc1nccc(-c2c(-c3cccc(O)c3)nc3sccn23)n1)c1ccc(N2CCOCC2)c(C(F)(F)F)c1
Leishmania chagasi
  IC50: 32.4 µM
Leishmania infantum
  inhibition: 67%

## N=C(N)N/N=C/c1cccc(Cl)c1Cl
Leishmania chagasi
  IC50: 7.27 µM

## O=C(Cn1ccnc1[N+](=O)[O-])NCc1ccccc1 [BENZNIDAZOLE]
Trypanosoma brucei
  EC50: 1.94 µM

## Cc1ccc(N2Cc3cc(NC(=O)N4CCN(c5cccc(C(F)(F)F)c5)CC4)ccc3C2=O)cc1
Trypanosoma cruzi [5]
  IC50: 0.04 µM

## CCc1ccc(-n2cc(CCN3CCN(C(=O)c4c(C)nc5cc(C)ccn45)CC3)nn2)cc1
Leishmania major [4]
  IC50: 15.1 µM

## NNS(=O)(=O)c1ccc([N+](=O)[O-])o1
Leishmania major [6]
  IC50: 1.85 µM
Leishmania major [4]
  IC50: 5.75 µM

## c1ccc(-c2cnc3ccccc3n2)cc1
Leishmania mexicana [7]
  IC50: 12.5 µM

## Cc1ncc([N+](=O)[O-])n1CCOC(=O)NC1CCCCC1
Entamoeba histolytica
  IC50: 0.46 µM

## COc1ccc2nc(-c3ccccc3)cnc2c1
Leishmania mexicana [7]
  IC50: 50.9 µM

## O=C(Nc1ccc2c(c1)CN(c1ccc(Br)cc1)C2=O)N1CCN(c2ccc(F)cc2)CC1
Trypanosoma cruzi [5]
  IC50: 0.05 µM

## COc1ccc2cc([C@H](C)C(=O)O)ccc2c1 [NAPROXEN]
Entamoeba histolytica
  IC50: 0.14 µM

## CCCCCCCCCCCCCCCCOP(=O)([O-])OCC[N+](C)(C)C [MILTEFOSINE]
Leishmania donovani [8]
  Activity: >98%

## O=C(Nc1nc2cc(Cl)ccc2o1)C(c1ccccc1)c1ccccc1
Leishmania donovani [9]
  IC50: 9.1 µM

## COc1ccc(C2=NN(C(C)C)C(=O)C2(C)C)cc1-c1ccncc1
Phosphodiesterase 4
  pIC50: 5.8

## O=c1[nH]c2cc(Cl)c(Cl)cc2c(=O)n1-c1ccccc1
Leishmania mexicana [7]
  IC50: 6.05 µM

## Cc1sc(NC(=S)NC(=O)c2cccc(Cl)c2)nc1-c1ccccc1
Leishmania major [3]
  IC50: 38.5 µg/mL

## COc1ccc(C(=O)NC(=S)Nc2nc(-c3ccccc3)c(C)s2)cc1
Leishmania major [3]
  IC50: 38.5 µg/mL

## C[C@@H]1[C@H](O)[C@@H](C)/C=C/C=C/C=C/C=C/C=C/C=C/C=C/[C@H](O[C@@H]2O[C@H](C)[C@@H](O)[C@H](N)[C@@H]2O)C[C@@H]2O[C@](O)(C[C@@H](O)C[C@@H](O)[C@H](O)CC[C@@H](O)C[C@@H](O)CC(=O)O[C@H]1C)C[C@H](O)[C@H]2C(=O)O [AMPHOTERICIN B]
Leishmania major [10]
  IC50: 0.19 µg/mL (≈ 0.206 µM)

## N/C(S)=N/N=C/c1cccc(Cl)c1Cl
Leishmania chagasi
  IC50: 2.2 µM

## Cn1ccnc1-c1nnc(-c2ccc([N+](=O)[O-])s2)s1
Leishmania major [11]
  IC50: 7.1 µg/mL (≈ 24.2 µM)
Leishmania major [12]
  IC50: 11.2 µg/mL (≈ 38.2 µM)

## NNc1nc(-c2ccc(F)cc2)nc2ccccc12
Leishmania braziliensis
  IC50: 7.41 µM

## COc1ccc(C2=NN(C(C)C)C(=O)C2(C)C)cc1OCc1ccccc1
Phosphodiesterase 4
  pIC50: 6.8

## COc1ccc2c(c1)c(CC(=O)O)c(C)n2C(=O)c1ccc(Cl)cc1 [INDOMETHACIN]
Entamoeba histolytica
  IC50: 0.22 µM

## CCCCCCCCCc1cn(CCN2CCN(C(=O)c3c(C)nc4cc(C)ccn34)CC2)nn1
Leishmania major [4]
  IC50: 15.1 µM

## N=C(N)N/N=C/c1ccc2ccccc2n1
Leishmania chagasi
  IC50: 0.6 µM

## COc1cccc(-c2nc3sccn3c2-c2ccnc(NCCNC(=O)Nc3cccc(C(F)(F)F)c3)n2)c1
Leishmania chagasi
  IC50: 30 µM
Leishmania infantum
  inhibition: 69.2%

## CC(C)(C)Nc1c(-c2cc3ccccc3n3nnnc23)nc2sc(C#N)cn12
[13]
  IC50: 140 µg/mL

## O=C(O)Cc1ccccc1Nc1c(Cl)cccc1Cl [DICLOFENAC]
Entamoeba histolytica
  IC50: 0.22 µM

## O=C(Cn1nnc2ccccc21)NNCc1ccccc1Cl
Leishmania donovani [8]
  Activity: 89.4%

## O=[N+]([O-])c1ccc(-c2nnc(N3CCC(O)CC3)s2)o1
Leishmania major [3]
  IC50: 68.9 µM

## c1cncc(Nc2nccc(-c3cnn4ncccc34)n2)c1
Trypanosoma cruzi [1]
  EC50: 7.7 µM

## O=[N+]([O-])c1ccc(-c2nnc(N3CCC(O)CC3)s2)s1
Leishmania major [3]
  IC50: 27 µM

## CC1CS(=O)(=O)CCN1/N=C/c1ccc([N+](=O)[O-])o1 (centres undefined) [NIFURTIMOX]
Leishmania mexicana [14]
  IC50: 9.32 µM

## Cn1c(/C=C/C(=O)NO)ccc1/C=C/C(=O)c1cccc(Cl)c1
L929
  CC50: 40 µM
Trypanosoma cruzi [15]
  EC50: 7 µM

## O=C(Nc1cc2nc(-c3ccc(F)c(F)c3)cn2cn1)N1CC[C@H](F)C1
Trypanosoma cruzi [1]
  EC50: 0.73 µM

## O=[N+]([O-])c1ccc2nc([S+]([O-])Cc3ccccn3)[nH]c2c1 (centres undefined)
[13]; read-out: IC50
  IC50: 11 µM

## c1ccc(-c2cnc3c(n2)CCCC3)cc1
Leishmania mexicana [7]
  IC50: 39.8 µM

## NNc1nc(-c2ccccc2Cl)nc2ccccc12
Leishmania braziliensis
  IC50: 8.43 µM

## Cc1ccn2c(C(=O)N3CCN(CCc4cn(-c5cccc(Cl)c5)nn4)CC3)c(C)nc2c1
HeLa
  CC50: 62.7 µM
Leishmania major [4]
  IC50: 15.1 µM

## O=C(Nc1cc2nc(-c3cccc(C(F)(F)F)c3)cn2cn1)N1CC[C@H](F)C1
Trypanosoma cruzi [1]
  EC50: 0.08 µM

## Cc1nc(C)c(C(=O)Nc2ccc(F)c(-c3nc4ncc(-c5ccccc5Cl)cn4n3)c2)o1
Trypanosoma cruzi [1]
  EC50: 0.02 µM

## O=C1c2ccccc2C(=O)N1CCn1cc(-c2ccccc2)nn1
Leishmania amazonensis
  IC50: 125 µM

## CN1C(=N)N/C(=C/c2c[nH]c3cc(Br)ccc23)C1=O
Trypanosoma cruzi [2]
  IC50: 62 µM

## COc1cc(/C=C/C(=O)CC(=O)/C=C/c2ccc(O)c(OC)c2)ccc1O [CURCUMIN]
[16]
  EC50: 4.85 µM

## O=[N+]([O-])c1c(CS(=O)(=O)c2ccccc2)nc2c(Sc3ccc(Cl)cc3)cc(Cl)cn12
Leishmania donovani [9]
  IC50: 1.3 µM
HepG2
  CC50: > 100 µM

## CC(C)(Oc1ccc(Cl)cc1)C(=O)O [CLOFIBRIC ACID]
Entamoeba histolytica
  IC50: 0.145 µM

## N=C(S)N/N=C/c1ccc(C(F)(F)F)cc1
Leishmania chagasi
  IC50: 3.2 µM

## Cc1cccnc1-n1cccc1C(=O)c1ccc(F)cc1
Leishmania donovani [17]
  IC50: 7.78 µM
Leishmania amazonensis
  IC50: 16.9 µM

## O=[N+]([O-])c1ccc(-c2nnc(NCCCO)s2)o1
Leishmania major [3]
  IC50: 18 µM

## Clc1ccc(-n2cc(C3=NCCS3)cn2)c(Cl)c1
Trypanosoma cruzi [2]
  IC50: 0.4 µM

## NC(=O)Nc1cc2nc(-c3cccc(C(F)(F)F)c3)cn2cn1
Trypanosoma cruzi [1]
  EC50: > 20 µM

## COC(=O)c1nc(NC(=O)c2cc(NC(=O)c3nc(NC(=O)OC(C)(C)C)sc3C(C)C)cn2C)sc1C(C)C
[16]
  EC50: 11.8 µM

## Cc1c(OCC(F)(F)F)ccnc1C[S+]([O-])c1nc2ccc([N+](=O)[O-])cc2[nH]1 (centres undefined)
[13]; read-out: IC50
  IC50: 15 µM

## Brc1ccc(-n2cc(C3=NCCS3)cn2)cc1
Trypanosoma cruzi [2]
  IC50: 2.1 µM

## Cc1ccn2c(C(=O)N3CCN(CCn4cc(-c5ccc(C(C)(C)C)cc5)nn4)CC3)c(C)nc2c1
Leishmania major [4]
  IC50: 15.1 µM
